Source: patent publication US20150258108A1 (priority 2014, published 2015)
“And” between values parts separate entries of the source, which are not always exact repeats. Equal entries are not always repeated. “Also recorded” adds a separate entry of the source.

How the values were obtained:
[1] = Safety and tolerability of noribogaine in healthy humans; assay type: in vivo, human
Procedure: Safety and tolerability of noribogaine were tested in the group of volunteers from Example 1. Cold pressor testing was conducted in 1° C. water according to the method of Mitchell et al. (J. Pain 5:233-237, 2004) pre-dose, 6, 24, 48, 72 and 216 hours post-dosing. Safety evaluations included clinical monitoring, recording of adverse events (AEs), safety laboratory tests, vital signs, ECG telemetry from −2 h to 6 h after dosing, and 12-lead electrocardiograms (ECGs) up to 216 hours post-dosing.

[2] = Time to resumption of OST and opiate withdrawal scales (COWS, SOWS, OOWS); assay type: in vivo, human; details: opioid-dependent patients
[3] = QT interval (ΔQTcl) in opioid-dependent patients; assay type: in vivo, human; details: 60, 120, 180 mg, first 24 hours; correlated with serum concentration
Procedure: Patients' QT intervals were evaluated at regular time points throughout the study.

OPRK [4] = molecular target: T1, OPRK (Homo sapiens, UniProt P41145); test: Activation and inhibition bias quantification G-protein/Beta-arrestin2
T1 sequence (P41145 whole entry): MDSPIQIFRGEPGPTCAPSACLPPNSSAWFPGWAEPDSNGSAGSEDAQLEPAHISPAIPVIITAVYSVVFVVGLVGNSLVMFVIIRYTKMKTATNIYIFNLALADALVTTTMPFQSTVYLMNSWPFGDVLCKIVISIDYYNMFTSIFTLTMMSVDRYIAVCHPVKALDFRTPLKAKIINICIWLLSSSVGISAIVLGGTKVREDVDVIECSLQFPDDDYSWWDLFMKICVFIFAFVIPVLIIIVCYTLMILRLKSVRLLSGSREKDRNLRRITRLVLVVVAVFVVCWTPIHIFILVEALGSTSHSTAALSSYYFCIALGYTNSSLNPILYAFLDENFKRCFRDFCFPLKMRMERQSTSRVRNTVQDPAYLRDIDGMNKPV
Procedure: Coupling efficiency (e-coupling) values indicated the relationship between the apparent binding affinity Ki versus the apparent functional potency EC50 of a given agonist ligand and used the equation pKi-pEC50. […] For inhibitory ligands, e-signal was calculated using maximal level of inhibition (Imax) normalized from 0 (basal, buffer) to 1 (agonist without inhibitor). Bias-coupling (quantification of pathway bias) was evaluated by subtracting the EC50 or the Ke issued from the G-protein pathway assays by those issued from β-arrestin pathway assays for a given ligand and in a linear (nM) scale. Bias-efficacy in favor of the G-protein pathway was evaluated by dividing the functional activation and the functional inhibition maximum responses (e-signal) from the G-protein pathway by the beta-arrestin pathway assays for a given ligand.

[5] = test system: OPRD: human opioid receptor delta; details: previously shown; cited from earlier work
OPRK [6] = molecular target: T1, OPRK; test: biochemical; set-up: purchased PerkinElmer Life Sciences (Boston, Mass.)
[7] = Ascending single-dose pharmacokinetics of noribogaine in healthy volunteers; details: for CL/F / Tmax: fasted healthy males, mean (SD), n = 6; for mean AUC/24 hr / mean AUC/24: fasting, serum
human OPRM = human OPRM (Homo sapiens, UniProt P35372); test: biochemical; assay type: biochemical; set-up: expressed in transfected cells; host or cells: CHO-K1 (cell lines provided by Dr. Toll, Torrey Pines Institute)
Chain of human OPRM (P35372 whole entry): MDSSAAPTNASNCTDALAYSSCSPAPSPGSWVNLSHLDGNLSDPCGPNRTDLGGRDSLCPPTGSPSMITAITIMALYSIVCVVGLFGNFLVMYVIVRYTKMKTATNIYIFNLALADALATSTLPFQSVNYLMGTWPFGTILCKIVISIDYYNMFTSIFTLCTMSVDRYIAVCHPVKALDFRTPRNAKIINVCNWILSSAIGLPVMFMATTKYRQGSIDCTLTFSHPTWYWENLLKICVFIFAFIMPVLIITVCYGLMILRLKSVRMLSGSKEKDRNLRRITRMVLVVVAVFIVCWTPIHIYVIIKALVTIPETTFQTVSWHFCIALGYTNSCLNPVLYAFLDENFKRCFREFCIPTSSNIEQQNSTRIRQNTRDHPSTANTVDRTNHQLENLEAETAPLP

CC[C@H]1CC2C[C@H]3c4[nH]c5ccc(O)cc5c4CCN(C2)C13 [Noribogaine]
adverse events reported ([1]; 3 mg dose group, healthy volunteers): five adverse events were reported by two subjects
adverse events reported ([1]; 10 mg dose group, healthy volunteers): one adverse event was reported by single subjects
adverse events reported ([1]; 30 mg dose group, healthy volunteers): one adverse event was reported by single subjects
oximetry, capnography, respiratory rate ([1]; 3-60 mg, healthy volunteers): no changes in oximetry or capnography, or changes in respiratory rate
vital signs and safety laboratory tests ([1]; 3-60 mg, healthy volunteers): no changes in vital signs or safety laboratory tests of note
Adverse events: Mild ([1]; Dose 3 mg, healthy volunteers): Dizziness; also recorded: Epistaxis; also recorded: Headache; also recorded: Back pain
Adverse events: Moderate ([1]; Dose 3 mg, healthy volunteers): Headache
Adverse events: Mild ([1]; Dose 10 mg, healthy volunteers): Headache
Adverse events: Mild ([1]; Dose 30 mg, healthy volunteers): Headache
QTcF values ([1]; any time, all dose groups 3-60 mg, healthy volunteers): ≤ 500 ms
single increase in QTcF ([1]; one subject dosed with 10 mg, 24 hours post-dosing): > 60 ms
withdrawal symptoms (COWS, OOWS, SOWS) over first six hours ([2]; 120 mg): generally experienced fewer withdrawal symptoms than the other patients
average time to resumption of opioids (OST) ([2]; single 120 mg dose): greater than 20 hours
QT interval prolongation (ΔQTcl) [3]: dose-dependent increase in QT interval prolongation
Bias G-protein/Beta-arrestin2: Bias-coupling (OPRK [4]; Activation): 32
Bias G-protein/Beta-arrestin2: Bias-efficacy (OPRK [4]; Activation): 0.59
Bias G-protein/Beta-arrestin2: Bias-efficacy (OPRK [4]; Inhibition): −0.35
Bias G-protein/Beta-arrestin2: Bias-coupling (OPRK [4]; Inhibition (fold more potent at inhibiting Dynorphin A-induced β-arrestin-2 recruitment than G-protein activation)): 144
fold less affine at OPRD than at OPRK [5]: ~30 ×
Efficacy (Emax) (OPRK [6]): 72%
Efficacy (inhibition) (OPRK [6]): 25%
G-protein Pathway e-coupling (OPRK [6]): 1.72 and 1.08
IC50 (OPRK [6]): 100 to 300 µM
e-coupling (OPRK [6]): 1.08 and 1.22 and 1.72
own reduced signal level to which rival agonists are leveled down (OPRK [6]): 70%
EC50 (OPRK [6]; EC50): 8.75 µM and 8.7 µM
EC50 (OPRK [6]; EC50 (potency)): 8.75 µM and 9 µM
Kb (OPRK [6]; Ke): 15 µM and 24 µM
Kb (OPRK [6]; pEC50, pKe): 12.6 µM and 39.8 µM
Emax (OPRK [6]; read-out: maximal efficacy relative to Dynorphin A): 75%
CL/F ([7]; 3 mg single oral dose): 41.4 (7.0) L/h
CL/F ([7]; 10 mg single oral dose): 42.3 (12.0) L/h
Tmax ([7]; 30 mg noribogaine single oral dose): 1.75 h
CL/F ([7]; 30 mg single oral dose): 46.9 (16.4) L/h
Tmax ([7]; 60 mg noribogaine single oral dose): 1.75 h
CL/F ([7]; 60 mg single oral dose): 34.0 (11.4) L/h
Cmax and AUC versus dose ([7]; 3-60 mg single oral doses): increased linearly with dose
time of peak concentrations after oral noribogaine dosing ([7]; across dose groups, healthy volunteers): 2 to 3 h
Mean half-life ([7]; across dose groups, healthy volunteers, plasma): 28 to 50 h
Vd ([7]; male, human, plasma, oral): 1420 to 3090 L
mean AUC/24 hr ([7]; single dose of 3 mg noribogaine free base): 3.1 ng/mL
mean AUC/24 hr ([7]; single dose of 10 mg noribogaine free base): 10.6 ng/mL
mean AUC/24 ([7]; single dose of 30 mg noribogaine free base): 29.2 ng/mL
mean AUC/24 ([7]; single dose of 60 mg noribogaine free base): 61 ng/mL
IC50 (human OPRM): 134 ± 17 µM
Ke (human OPRM): 19 ± 5 µM
Ke (functional inhibition constant) (human OPRM): 19.203 µM
antagonist potency, OPRM G-protein pathway (human OPRM): 20 µM
e-coupling (human OPRM): 1.02 and 1.10
EC50 (human OPRM; EC50): 16.1 µM
Kb (human OPRM; Ke): 28 ± 14 µM
EC50 (human OPRM; approximated EC50): ~16 µM
Kb (human OPRM; pEC50, (Ke): pKe): 20 µM
